Reference: the NIST ThermoML archive (doi:10.1021/acs.jced.8b00153)
“And” between values parts separate entries of the source, which are not always exact repeats. Equal values may be shown once.

Details: for mass density / vapor or sublimation pressure / viscosity / speed of sound: Liquid; for mass density: Vibrating tube method; for vapor or sublimation pressure: Ebulliometric method (Recirculating still); for surface tension liquid-gas: Drop volume; for viscosity: Capillary tube (Ostwald / Ubbelohde) method; for speed of sound: Frequency=3 MHz, Single path-length method

CCc1ccco1 [2-ethylfuran]
Details | mass density | speed of sound [m/s] | viscosity [mPa·s]
295.65 K, 100 kPa | 901.9 kg/m3 | – | –
298.15 K, 100 kPa | 899.15 kg/m3 and 899.11 kg/m3 | 1194.9 | 0.4917
298.15 K, 2000 kPa | 901.01 kg/m3 | – | –
298.15 K, 5000 kPa | 903.73 kg/m3 | – | –
298.15 K, 7000 kPa | 905.65 kg/m3 | – | –
298.15 K, 10000 kPa | 908.34 kg/m3 | – | –
298.15 K, 15000 kPa | 912.57 kg/m3 | – | –
298.15 K, 20000 kPa | 916.67 kg/m3 | – | –
298.15 K, 25000 kPa | 920.61 kg/m3 | – | –
298.15 K, 30000 kPa | 924.3 kg/m3 | – | –
298.15 K, 35000 kPa | 928.03 kg/m3 | – | –
298.15 K, 40000 kPa | 931.52 kg/m3 | – | –
298.15 K, 45000 kPa | 934.92 kg/m3 | – | –
298.15 K, 50000 kPa | 938.29 kg/m3 | – | –
298.15 K, 55000 kPa | 941.41 kg/m3 | – | –
298.15 K, 60000 kPa | 944.69 kg/m3 | – | –
298.15 K, 65000 kPa | 947.7 kg/m3 | – | –
300.65 K, 100 kPa | 896.4 kg/m3 | 1184.1 | 0.4774
303.15 K, 100 kPa | 893.64 kg/m3 and 893.58 kg/m3 | 1172.5 | 0.4637
303.15 K, 2000 kPa | 895.61 kg/m3 | – | –
303.15 K, 5000 kPa | 898.41 kg/m3 | – | –
303.15 K, 7000 kPa | 900.35 kg/m3 | – | –
303.15 K, 10000 kPa | 903.06 kg/m3 | – | –
303.15 K, 15000 kPa | 907.56 kg/m3 | – | –
303.15 K, 20000 kPa | 911.72 kg/m3 | – | –
303.15 K, 25000 kPa | 915.8 kg/m3 | – | –
303.15 K, 30000 kPa | 919.58 kg/m3 | – | –
303.15 K, 35000 kPa | 923.37 kg/m3 | – | –
303.15 K, 40000 kPa | 927 kg/m3 | – | –
303.15 K, 45000 kPa | 930.47 kg/m3 | – | –
303.15 K, 50000 kPa | 933.84 kg/m3 | – | –
303.15 K, 55000 kPa | 937.1 kg/m3 | – | –
303.15 K, 60000 kPa | 940.35 kg/m3 | – | –
303.15 K, 65000 kPa | 943.48 kg/m3 | – | –
305.65 K, 100 kPa | 890.87 kg/m3 | 1161.8 | 0.45
308.15 K, 100 kPa | 888.1 kg/m3 and 888.06 kg/m3 | 1151.5 | 0.4372
308.15 K, 2000 kPa | 890.15 kg/m3 | – | –
308.15 K, 5000 kPa | 893.04 kg/m3 | – | –
308.15 K, 7000 kPa | 895.02 kg/m3 | – | –
308.15 K, 10000 kPa | 897.93 kg/m3 | – | –
308.15 K, 15000 kPa | 902.45 kg/m3 | – | –
308.15 K, 20000 kPa | 906.8 kg/m3 | – | –
308.15 K, 25000 kPa | 910.98 kg/m3 | – | –
308.15 K, 30000 kPa | 914.84 kg/m3 | – | –
308.15 K, 35000 kPa | 918.68 kg/m3 | – | –
308.15 K, 40000 kPa | 922.47 kg/m3 | – | –
308.15 K, 45000 kPa | 925.95 kg/m3 | – | –
308.15 K, 50000 kPa | 929.45 kg/m3 | – | –
308.15 K, 55000 kPa | 932.76 kg/m3 | – | –
308.15 K, 60000 kPa | 936.18 kg/m3 | – | –
308.15 K, 65000 kPa | 939.24 kg/m3 | – | –
310.65 K, 100 kPa | 885.31 kg/m3 | 1140.6 | 0.4258
313.15 K, 100 kPa | – | – | 0.4149

Details | surface tension liquid-gas [mN/m] | vapor or sublimation pressure [kPa]
295.94 K | – | 6.77
297.39 K | – | 7.29
298.15 K | 24.78 | –
299.52 K | – | 8.105
300.65 K | 24.43 | –
301.86 K | – | 9.08
303.15 K | 24.12 | –
304.58 K | – | 10.35
305.65 K | 23.81 | –
306.32 K | – | 11.27
308.15 K | 23.51 | –
308.82 K | – | 12.64
310.65 K | 23.22 | –
312.73 K | – | 15.06
313.15 K | 22.91 | –
